ChEMBL document CHEMBL5247648, “Design, Synthesis, and Anti-Cancer Evaluation of Novel Cyclic Phosphate Prodrug of Gemcitabine” (J Med Chem, 2023)

System: not listed separately
Assay: Clearance in Beagle dog at 1 mg/kg, iv measured for 0.083 to 24 hrs by LC-MS/MS analysis
Format: ADME, organism-based, Canis lupus familiaris
Settings: in vivo, time 0.083-24 hrs

| Compound | clearance [mL/min/kg] |
| --- | --- |
| Nc1ccn([C@@H]2O[C@H](COP(=O)(O)OCC(=O)OCc3ccccc3)[C@@H](O)C2(F)F)c(=O)n1 | 28.4 |
| Nc1ccn([C@@H]2O[C@H](CO)[C@@H](OP(=O)(O)OCC(=O)OCc3ccccc3)C2(F)F)c(=O)n1 | 28.4 |

System: BXPC-3
Assay: Induction of apoptosis in human BXPC-3 cells assessed as viable cells at 100 nM incubated for 24 hrs by […] (reference value: 93.51 %)
Format: functional
Settings: read-out: Activity

| Compound | viability at 0.1 µM [%] |
| --- | --- |
| C[C@H](NP(=O)(OC[C@H]1O[C@@H](n2ccc(N)nc2=O)C(F)(F)[C@@H]1O)Oc1ccccc1)C(=O)OCc1ccccc1 (some centres undefined) [FOSGEMCITABINE PALABENAMIDE] | 88.7 |

System: BXPC-3
Assay: Induction of apoptosis in human BXPC-3 cells assessed as necrotic cells at 100 nM incubated for 24 hrs by […] (reference value: 3.57 %)
Format: functional
Settings: not given

| Compound | Activity [%] |
| --- | --- |
| C[C@H](NP(=O)(OC[C@H]1O[C@@H](n2ccc(N)nc2=O)C(F)(F)[C@@H]1O)Oc1ccccc1)C(=O)OCc1ccccc1 (some centres undefined) [FOSGEMCITABINE PALABENAMIDE] | 7.48 |

System: not listed separately
Assay: Cmax in Beagle dog at 1 mg/kg, iv measured for 0.083 to 24 hrs by LC-MS/MS analysis
Format: ADME, organism-based, Canis lupus familiaris
Design: time upper 24 hrs, time lower 0.083 hrs, dose 1 mg/kg, route iv
Settings: in vivo

| Compound | Cmax [ng/mL] |
| --- | --- |
| Nc1ccn([C@@H]2O[C@H](COP(=O)(O)OCC(=O)OCc3ccccc3)[C@@H](O)C2(F)F)c(=O)n1 | 2560 |
| Nc1ccn([C@@H]2O[C@H](CO)[C@@H](OP(=O)(O)OCC(=O)OCc3ccccc3)C2(F)F)c(=O)n1 | 2560 |

System: CWR22R
Assay: Antiproliferative activity against human 22Rv1 cells assessed as inhibition of cell proliferation treated for 72 hrs by resazurin dye-based fluorescence assay
Format: functional
Settings: 22Rv1, 72 h

| Compound | IC50 [nM] |
| --- | --- |
| Nc1ccn([C@@H]2O[C@@H]3CO[P@](=O)(OCC(=O)OCc4ccccc4)O[C@H]3C2(F)F)c(=O)n1 | 10.6 |
| Nc1ccn([C@@H]2O[C@H](COP(=O)(O)OCC(=O)OCc3ccccc3)[C@@H](O)C2(F)F)c(=O)n1 | 43.2 |
| C[C@H](NP(=O)(OC[C@H]1O[C@@H](n2ccc(N)nc2=O)C(F)(F)[C@@H]1O)Oc1ccccc1)C(=O)OCc1ccccc1 (some centres undefined) [FOSGEMCITABINE PALABENAMIDE] | 130 |
| Nc1ccn([C@@H]2O[C@H](CO)[C@@H](OP(=O)(O)OCC(=O)OCc3ccccc3)C2(F)F)c(=O)n1 | 43.2 |

System: BXPC-3
Assay: Antiproliferative activity against human BXPC-3 cells assessed as inhibition of cell proliferation treated for 72 hrs by resazurin dye-based fluorescence assay
Format: functional
Settings: BXPC-3, 72 h

| Compound | IC50 [nM] |
| --- | --- |
| Nc1ccn([C@@H]2O[C@@H]3CO[P@](=O)(OCC(=O)OCc4ccccc4)O[C@H]3C2(F)F)c(=O)n1 | 14.5 |
| Nc1ccn([C@@H]2O[C@H](COP(=O)(O)OCC(=O)OCc3ccccc3)[C@@H](O)C2(F)F)c(=O)n1 | 64.5 |
| C[C@H](NP(=O)(OC[C@H]1O[C@@H](n2ccc(N)nc2=O)C(F)(F)[C@@H]1O)Oc1ccccc1)C(=O)OCc1ccccc1 (some centres undefined) [FOSGEMCITABINE PALABENAMIDE] | 230 |
| Nc1ccn([C@@H]2O[C@H](CO)[C@@H](OP(=O)(O)OCC(=O)OCc3ccccc3)C2(F)F)c(=O)n1 | 64.5 |

System: BXPC-3
Assay: Induction of apoptosis in human BXPC-3 cells assessed as early cells at 100 nM incubated for 24 hrs by […] (reference value: 1.68 %)
Format: functional
Settings: not given

| Compound | Activity [%] |
| --- | --- |
| C[C@H](NP(=O)(OC[C@H]1O[C@@H](n2ccc(N)nc2=O)C(F)(F)[C@@H]1O)Oc1ccccc1)C(=O)OCc1ccccc1 (some centres undefined) [FOSGEMCITABINE PALABENAMIDE] | 1.52 |

System: not listed separately
Assay: Toxicity in castrated male nude Balb/c mouse xenografted with human 22Rv1 cells assessed as tolerance at 50 mg/kg, ip administered twice a week measured after 28 days
Format: organism-based, CWR22R
Settings: in vivo, 672 h, time 28 day

| Compound | Activity |
| --- | --- |
| C[C@H](NP(=O)(OC[C@H]1O[C@@H](n2ccc(N)nc2=O)C(F)(F)[C@@H]1O)Oc1ccccc1)C(=O)OCc1ccccc1 (some centres undefined) [FOSGEMCITABINE PALABENAMIDE] | Non-Toxic |

System: not listed separately
Assay: Half life in Beagle dog at 1 mg/kg, iv measured for 0.083 to 24 hrs by LC-MS/MS analysis
Format: ADME, organism-based, Canis lupus familiaris
Settings: in vivo, time 0.083-24 hrs

| Compound | half-life [min] |
| --- | --- |
| Nc1ccn([C@@H]2O[C@H](COP(=O)(O)OCC(=O)OCc3ccccc3)[C@@H](O)C2(F)F)c(=O)n1 | 35.2 |
| Nc1ccn([C@@H]2O[C@H](CO)[C@@H](OP(=O)(O)OCC(=O)OCc3ccccc3)C2(F)F)c(=O)n1 | 35.2 |

System: MM1.S
Assay: Antiproliferative activity against human MM1.S cells assessed as inhibition of cell proliferation treated for 72 hrs by resazurin dye-based fluorescence assay
Format: functional
Settings: not given

| Compound | IC50 [nM] |
| --- | --- |
| Nc1ccn([C@@H]2O[C@@H]3CO[P@](=O)(OCC(=O)OCc4ccccc4)O[C@H]3C2(F)F)c(=O)n1 | 5 |
| Nc1ccn([C@@H]2O[C@H](COP(=O)(O)OCC(=O)OCc3ccccc3)[C@@H](O)C2(F)F)c(=O)n1 | 17.3 |
| C[C@H](NP(=O)(OC[C@H]1O[C@@H](n2ccc(N)nc2=O)C(F)(F)[C@@H]1O)Oc1ccccc1)C(=O)OCc1ccccc1 (some centres undefined) [FOSGEMCITABINE PALABENAMIDE] | 31.1 |
| Nc1ccn([C@@H]2O[C@H](CO)[C@@H](OP(=O)(O)OCC(=O)OCc3ccccc3)C2(F)F)c(=O)n1 | 17.3 |

System: MV4-11
Assay: Antiproliferative activity against human MV4-11 cells assessed as inhibition of cell proliferation treated for 72 hrs by resazurin dye-based fluorescence assay
Format: functional
Settings: MV4-11, 72 h

| Compound | IC50 [nM] |
| --- | --- |
| Nc1ccn([C@@H]2O[C@@H]3CO[P@](=O)(OCC(=O)OCc4ccccc4)O[C@H]3C2(F)F)c(=O)n1 | 3.8 |
| Nc1ccn([C@@H]2O[C@H](COP(=O)(O)OCC(=O)OCc3ccccc3)[C@@H](O)C2(F)F)c(=O)n1 | 10.3 |
| C[C@H](NP(=O)(OC[C@H]1O[C@@H](n2ccc(N)nc2=O)C(F)(F)[C@@H]1O)Oc1ccccc1)C(=O)OCc1ccccc1 (some centres undefined) [FOSGEMCITABINE PALABENAMIDE] | 61 |
| Nc1ccn([C@@H]2O[C@H](CO)[C@@H](OP(=O)(O)OCC(=O)OCc3ccccc3)C2(F)F)c(=O)n1 | 10.3 |

System: not listed separately
Assay: Toxicity in castrated male nude Balb/c mouse xenografted with human 22Rv1 cells assessed as toxic signs at 50 mg/kg, ip administered twice a week measured after 28 days
Format: organism-based, CWR22R
Settings: in vivo, 672 h, time 28 day

| Compound | Activity |
| --- | --- |
| C[C@H](NP(=O)(OC[C@H]1O[C@@H](n2ccc(N)nc2=O)C(F)(F)[C@@H]1O)Oc1ccccc1)C(=O)OCc1ccccc1 (some centres undefined) [FOSGEMCITABINE PALABENAMIDE] | Non-Toxic |

System: MIA PaCa-2
Assay: Antiproliferative activity against human MIA PaCa-2 cells assessed as inhibition of cell proliferation treated for 72 hrs by resazurin dye-based fluorescence assay
Format: functional
Settings: MIA PaCa-2, 72 h

| Compound | IC50 [nM] |
| --- | --- |
| C[C@H](NP(=O)(OC[C@H]1O[C@@H](n2ccc(N)nc2=O)C(F)(F)[C@@H]1O)Oc1ccccc1)C(=O)OCc1ccccc1 (some centres undefined) [FOSGEMCITABINE PALABENAMIDE] | 142 |

System: BXPC-3
Assay: Induction of apoptosis in human BXPC-3 cells assessed as late cells at 100 nM incubated for 24 hrs by […] (reference value: 1.24 %)
Format: functional
Settings: not given

| Compound | Activity [%] |
| --- | --- |
| C[C@H](NP(=O)(OC[C@H]1O[C@@H](n2ccc(N)nc2=O)C(F)(F)[C@@H]1O)Oc1ccccc1)C(=O)OCc1ccccc1 (some centres undefined) [FOSGEMCITABINE PALABENAMIDE] | 2.3 |

System: CWR22R
Assay: In vivo antitumor activity against human 22Rv1 cells xenografted in castrated male nude Balb/c mouse assessed as tumor growth inhibition at 50 mg/kg, ip administered twice a week measured after 28 days relative to control
Format: functional
Settings: 22Rv1, 672 h, time 28 day, read-out: TGI

| Compound | inhibition in vivo at 50 mg/kg [%] |
| --- | --- |
| C[C@H](NP(=O)(OC[C@H]1O[C@@H](n2ccc(N)nc2=O)C(F)(F)[C@@H]1O)Oc1ccccc1)C(=O)OCc1ccccc1 (some centres undefined) [FOSGEMCITABINE PALABENAMIDE] | 55.6 |

System: not listed separately
Assay: Toxicity in castrated male nude Balb/c mouse xenografted with human 22Rv1 cells assessed as animal weight loss at 50 mg/kg, ip administered twice a week measured after 28 days
Format: organism-based, CWR22R
Settings: in vivo, 672 h, time 28 day

| Compound | Activity |
| --- | --- |
| C[C@H](NP(=O)(OC[C@H]1O[C@@H](n2ccc(N)nc2=O)C(F)(F)[C@@H]1O)Oc1ccccc1)C(=O)OCc1ccccc1 (some centres undefined) [FOSGEMCITABINE PALABENAMIDE] | Non-Toxic |

System: Huh-7
Assay: Antiproliferative activity against human Huh-7 cells assessed as inhibition of cell proliferation treated for 72 hrs by resazurin dye-based fluorescence assay
Format: functional
Settings: Huh-7, 72 h

| Compound | IC50 [nM] |
| --- | --- |
| Nc1ccn([C@@H]2O[C@@H]3CO[P@](=O)(OCC(=O)OCc4ccccc4)O[C@H]3C2(F)F)c(=O)n1 | 22 |
| Nc1ccn([C@@H]2O[C@H](COP(=O)(O)OCC(=O)OCc3ccccc3)[C@@H](O)C2(F)F)c(=O)n1 | 69 |
| C[C@H](NP(=O)(OC[C@H]1O[C@@H](n2ccc(N)nc2=O)C(F)(F)[C@@H]1O)Oc1ccccc1)C(=O)OCc1ccccc1 (some centres undefined) [FOSGEMCITABINE PALABENAMIDE] | 350 |
| Nc1ccn([C@@H]2O[C@H](CO)[C@@H](OP(=O)(O)OCC(=O)OCc3ccccc3)C2(F)F)c(=O)n1 | 69 |

System: not listed separately
Assay: AUC (0 to infinity) in Beagle dog at 1 mg/kg, iv measured for 0.083 to 24 hrs by LC-MS/MS analysis
Format: ADME, organism-based, Canis lupus familiaris
Design: time upper 24 hrs, time lower 0.083 hrs, dose 1 mg/kg, route iv
Settings: in vivo

| Compound | AUC(0-inf) [ng·h/mL] |
| --- | --- |
| Nc1ccn([C@@H]2O[C@H](COP(=O)(O)OCC(=O)OCc3ccccc3)[C@@H](O)C2(F)F)c(=O)n1 | 637 |
| Nc1ccn([C@@H]2O[C@H](CO)[C@@H](OP(=O)(O)OCC(=O)OCc3ccccc3)C2(F)F)c(=O)n1 | 637 |

System: CWR22R
Assay: In vivo antitumor activity against human 22Rv1 cells xenografted in castrated male nude Balb/c mouse assessed as relative increment ratio at 50 mg/kg, ip administered twice a week measured after 28 days relative to control
Format: functional
Settings: time 28 day

| Compound | T/C [%] |
| --- | --- |
| C[C@H](NP(=O)(OC[C@H]1O[C@@H](n2ccc(N)nc2=O)C(F)(F)[C@@H]1O)Oc1ccccc1)C(=O)OCc1ccccc1 (some centres undefined) [FOSGEMCITABINE PALABENAMIDE] | 51.9 |

System: JeKo-1
Assay: Antiproliferative activity against human JeKo-1 cells assessed as inhibition of cell proliferation treated for 72 hrs by resazurin dye-based fluorescence assay
Format: functional
Settings: JeKo-1, 72 h

| Compound | IC50 [nM] |
| --- | --- |
| C[C@H](NP(=O)(OC[C@H]1O[C@@H](n2ccc(N)nc2=O)C(F)(F)[C@@H]1O)Oc1ccccc1)C(=O)OCc1ccccc1 (some centres undefined) [FOSGEMCITABINE PALABENAMIDE] | 160 |
